Legend:
Assay type in all cases: in vivo
[1] = tested on: winter barley (Hordeum vulgare); assay: Test B postemergence plant response; settings: Postemergence; for Barley plant response rating: 250 g ai/ha, scale 0 to 100
How it was run: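 Plants grown in peat/vermiculite medium were sprayed postemergence at 2–18 cm height (1- to 4-leaf stage). After 13–15 days in the greenhouse, response was rated visually against untreated controls on a 0–100 scale (0 no effect, 100 complete control).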

[2] = tested on: barnyardgrass (Echinochloa crus-galli); assay: Test A pre-/postemergence plant response
How it was run: (§1)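 Visually rated 0–100 injury (100 = complete control) versus untreated plants, ~10 days in greenhouse. Application pre- (soil spray, loam/sand) and postemergence (2–10 cm, 1–2 leaf stage), same timepoint.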

corn (Zea mays) = assay: Test A pre-/postemergence plant response
How it was run: as §1

[3] = tested on: wheat (Triticum aestivum); assay: Test A pre-/postemergence plant response
How it was run: as §1

[4] = tested on: morningglory (Ipomoea spp.); assay: Test A pre-/postemergence plant response
How it was run: as §1

[5] = tested on: giant foxtail (Setaria faberii); assay: Test A pre-/postemergence plant response
How it was run: as §1

[6] = tested on: velvetleaf (Abutilon theophrasti); assay: Test A pre-/postemergence plant response
How it was run: as §1

[7] = tested on: pigweed (Amaranthus retroflexus); assay: Test A pre-/postemergence plant response
How it was run: as §1

[8] = tested on: large crabgrass (Digitaria sanguinalis); assay: Test A pre-/postemergence plant response
How it was run: as §1

[9] = tested on: barnyardgrass (Echinochloa crus-galli); assay: Test B flooded paddy test; settings: for Plant response rating, Flood, Barnyardgrass: 250 g ai/ha, flooded paddy test, visual rating on 0 to 100 scale (0 no effect, 100 complete control) after 13 to 15 days; for Plant response rating, Barnyardgrass: Flood (flooded paddy test), 13 to 15 days
How it was run: (§2)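 Seedlings reaching 2 leaves are flooded 3 cm deep; test material is delivered to that water, which stays at the same depth. Plants remain in a greenhouse 13–15 days and are then scored by eye versus controls from 0 to 100.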

[10] = tested on: ducksalad (Heteranthera limosa); assay: Test B flooded paddy test; settings: for Plant response rating, Flood, Ducksalad: 250 g ai/ha, flooded paddy test, visual rating on 0 to 100 scale (0 no effect, 100 complete control) after 13 to 15 days; for Plant response rating, Ducksalad: Flood (flooded paddy test), 13 to 15 days
How it was run: as §2

rice (Oryza sativa) = assay: Test B flooded paddy test; settings: for Plant response rating, Flood, Rice: 250 g ai/ha, flooded paddy test, visual rating on 0 to 100 scale (0 no effect, 100 complete control) after 13 to 15 days; for Plant response rating, Rice: Flood (flooded paddy test), 13 to 15 days
How it was run: as §2

[11] = tested on: umbrella sedge (Cyperus difformis); assay: Test B flooded paddy test; settings: for Plant response rating, Flood, Sedge, Umbrella: 250 g ai/ha, flooded paddy test, visual rating on 0 to 100 scale (0 no effect, 100 complete control) after 13 to 15 days; for Plant response rating, Sedge, Umbrella: Flood (flooded paddy test), 13 to 15 days
How it was run: as §2

[12] = Postemergence, 125 g ai/ha, 0 to 100 scale where 0 is no effect and 100 is complete control
[13] = Postemergence, 500 g ai/ha, visual injury, 0 to 100 scale (0 no effect, 100 complete control), approx. ten days
[14] = Preemergence, 125 g ai/ha, 0 to 100 scale, 0 = no effect, 100 = complete control
[15] = Preemergence, 500 g ai/ha, 0 to 100 scale, 0 = no effect, 100 = complete control
[16] = 62 g ai/ha, scale of 0 to 100 where 0 is no effect and 100 is complete control
[17] = 125 g ai/ha, scale 0 to 100, 0 is no effect, 100 is complete control
[18] = Flood, 31 g ai/ha, scale 0 to 100 (0 no effect, 100 complete control)
[19] = 31 g ai/ha, scale 0 to 100 (0 no effect, 100 complete control)
[20] = 62 g ai/ha, scale 0 (no effect) to 100 (complete control), 13 to 15 days
[21] = 125 g ai/ha, scale 0 to 100 (0 no effect, 100 complete control), 13 to 15 days
[22] = Postemergence, 125 g ai/ha, visual injury, 0 to 100 scale (0 no effect, 100 complete control), approx. ten days
[23] = Postemergence, 500 g ai/ha, 0 to 100 scale, 0 = no effect, 100 = complete control, approx. ten days
[24] = Preemergence, 500 g ai/ha, visual injury, 0 to 100 scale (0 no effect, 100 complete control), approx. ten days
[25] = 31 g ai/ha, scale of 0 to 100 where 0 is no effect and 100 is complete control
[26] = 62 g ai/ha, scale 0 to 100, 0 is no effect, 100 is complete control

Compound: COCCn1c(-c2cccc(F)c2)ncc(C(=O)C2=C(O)C3CCC(C3)C2=O)c1=O (stereo not shown) [Compound 235]
- Plant response rating, Barley ([1]; 31 g ai/ha, 0 to 100 scale (0 no effect, 100 complete control)): 0
- Plant response rating, Barley ([1]; 62 g ai/ha, scale 0 to 100 (0 no effect, 100 complete control)): 30
- Plant response rating, Barley ([1]; 125 g ai/ha, scale 0 to 100 (0 no effect, 100 complete control)): 40
- Plant response rating, Barnyardgrass [2, 12]: 90
- Barnyardgrass plant response rating [2, 13]: 100
- Plant response rating, Barnyardgrass [2, 14]: 90
- Plant response rating, Barnyardgrass [2, 15]: 100
- Plant response rating, Corn (corn (Zea mays); [12]): 80
- Corn plant response rating (corn (Zea mays); [13]): 90
- Plant response rating, Corn (corn (Zea mays); [14]): 20
- Plant response rating, Corn (corn (Zea mays); [15]): 70
- Plant response rating, Wheat [3, 12]: 50
- Wheat plant response rating [3, 13]: 80
- Plant response rating, Wheat [3, 14]: 10
- Plant response rating, Wheat [3, 15]: 40
- Plant response rating, Morningglory [4, 12]: 100
- Morningglory plant response rating [4, 13]: 100
- Plant response rating, Morningglory [4, 14]: 80
- Plant response rating, Morningglory [4, 15]: 90
- Plant response rating, Foxtail, Giant [5, 12]: 90
- Foxtail, Giant plant response rating [5, 13]: 100
- Plant response rating, Foxtail, Giant [5, 14]: 70
- Plant response rating, Foxtail, Giant [5, 15]: 90
- Plant response rating, Velvetleaf [6, 12]: 100
- Velvetleaf plant response rating [6, 13]: 100
- Plant response rating, Velvetleaf [6, 14]: 100
- Plant response rating, Velvetleaf [6, 15]: 100
- Plant response rating, Pigweed [7, 12]: 100
- Pigweed plant response rating [7, 13]: 100
- Plant response rating, Pigweed [7, 14]: 90
- Plant response rating, Pigweed [7, 15]: 90
- Plant response rating, Crabgrass, Large [8, 12]: 100
- Crabgrass, Large plant response rating [8, 13]: 100
- Plant response rating, Crabgrass, Large [8, 14]: 100
- Plant response rating, Crabgrass, Large [8, 15]: 100
- Plant response rating, Flood, Barnyardgrass [9]: 75
- Plant response rating, Barnyardgrass [9, 16]: 20
- Plant response rating, Barnyardgrass [9, 17]: 50
- Barnyardgrass plant response rating [9, 18]: 0
- Plant response rating, Flood, Ducksalad [10]: 100
- Plant response rating, Ducksalad [10, 16]: 95
- Plant response rating, Ducksalad [10, 17]: 100
- Ducksalad plant response rating [10, 18]: 95
- Plant response rating, Flood, Rice (rice (Oryza sativa)): 55
- Plant response rating, Rice (rice (Oryza sativa); [16]): 0
- Plant response rating, Rice (rice (Oryza sativa); [17]): 45
- Rice plant response rating (rice (Oryza sativa); [18]): 0
- Plant response rating, Flood, Sedge, Umbrella [11]: 80
- Plant response rating, Sedge, Umbrella [11, 16]: 70
- Plant response rating, Sedge, Umbrella [11, 17]: 80
- Sedge, Umbrella plant response rating [11, 18]: 0

Compound: 3-cyclohexyl-5-[(2-hydroxy-6-oxo-1-cyclohexen-1-yl)carbonyl]-2-phenyl-4(3H)-pyrimidinone [Compound 128]
- Plant response rating, Barley [1, 19]: 0
- Plant response rating, Barley [1, 20]: 10
- Plant response rating, Barley [1, 21]: 10
- Barley plant response rating [1]: 10
- Barnyardgrass plant response rating [2, 22]: 40
- Plant response rating, Barnyardgrass [2, 23]: 100
- Plant response rating, Barnyardgrass [2, 14]: 0
- Plant response rating, Barnyardgrass [2, 24]: 70
- Corn plant response rating (corn (Zea mays); [22]): 0
- Plant response rating, Corn (corn (Zea mays); [23]): 20
- Plant response rating, Corn (corn (Zea mays); [14]): 0
- Plant response rating, Corn (corn (Zea mays); [24]): 0
- Wheat plant response rating [3, 22]: 0
- Plant response rating, Wheat [3, 23]: 0
- Plant response rating, Wheat [3, 14]: 0
- Plant response rating, Wheat [3, 24]: 0
- Morningglory plant response rating [4, 22]: 90
- Plant response rating, Morningglory [4, 23]: 90
- Plant response rating, Morningglory [4, 14]: 0
- Plant response rating, Morningglory [4, 24]: 70
- Foxtail, Giant plant response rating [5, 22]: 70
- Plant response rating, Foxtail, Giant [5, 23]: 90
- Plant response rating, Foxtail, Giant [5, 14]: 10
- Plant response rating, Foxtail, Giant [5, 24]: 50
- Velvetleaf plant response rating [6, 22]: 100
- Plant response rating, Velvetleaf [6, 23]: 100
- Plant response rating, Velvetleaf [6, 14]: 60
- Plant response rating, Velvetleaf [6, 24]: 100
- Pigweed plant response rating [7, 22]: 90
- Plant response rating, Pigweed [7, 23]: 100
- Plant response rating, Pigweed [7, 14]: 60
- Plant response rating, Pigweed [7, 24]: 100
- Crabgrass, Large plant response rating [8, 22]: 50
- Plant response rating, Crabgrass, Large [8, 23]: 90
- Plant response rating, Crabgrass, Large [8, 14]: 20
- Plant response rating, Crabgrass, Large [8, 24]: 90
- Plant response rating, Flood, Barnyardgrass [9]: 25
- Plant response rating, Barnyardgrass [9, 25]: 0
- Plant response rating, Barnyardgrass [9, 26]: 0
- Plant response rating, Barnyardgrass [9, 17]: 0
- Plant response rating, Flood, Ducksalad [10]: 80
- Plant response rating, Ducksalad [10, 25]: 0
- Plant response rating, Ducksalad [10, 26]: 0
- Plant response rating, Ducksalad [10, 17]: 65
- Plant response rating, Flood, Rice (rice (Oryza sativa)): 25
- Plant response rating, Rice (rice (Oryza sativa); [25]): 0
- Plant response rating, Rice (rice (Oryza sativa); [26]): 10
- Plant response rating, Rice (rice (Oryza sativa); [17]): 20
- Plant response rating, Flood, Sedge, Umbrella [11]: 85
- Plant response rating, Sedge, Umbrella [11, 25]: 0
- Plant response rating, Sedge, Umbrella [11, 26]: 0
- Plant response rating, Sedge, Umbrella [11, 17]: 40

Compound: 5-[(2-hydroxy-6-oxo-1-cyclohexen-1-yl)carbonyl]-2,3-diphenyl-4(3H)-pyrimidinone [Compound 2]
- Plant response rating, Barley [1, 19]: 0
- Plant response rating, Barley [1, 20]: 0
- Plant response rating, Barley [1, 21]: 0
- Barley plant response rating [1]: 0
- Barnyardgrass plant response rating [2, 22]: 20
- Plant response rating, Barnyardgrass [2, 23]: 60
- Plant response rating, Barnyardgrass [2, 14]: 0
- Plant response rating, Barnyardgrass [2, 24]: 10
- Corn plant response rating (corn (Zea mays); [22]): 0
- Plant response rating, Corn (corn (Zea mays); [23]): 0
- Plant response rating, Corn (corn (Zea mays); [14]): 0
- Plant response rating, Corn (corn (Zea mays); [24]): 0
- Wheat plant response rating [3, 22]: 10
- Plant response rating, Wheat [3, 23]: 20
- Plant response rating, Wheat [3, 14]: 0
- Plant response rating, Wheat [3, 24]: 0
- Morningglory plant response rating [4, 22]: 70
- Plant response rating, Morningglory [4, 23]: 90
- Plant response rating, Morningglory [4, 24]: 50
- Foxtail, Giant plant response rating [5, 22]: 10
- Plant response rating, Foxtail, Giant [5, 23]: 40
- Plant response rating, Foxtail, Giant [5, 14]: 0
- Plant response rating, Foxtail, Giant [5, 24]: 10
- Velvetleaf plant response rating [6, 22]: 100
- Plant response rating, Velvetleaf [6, 23]: 100
- Plant response rating, Velvetleaf [6, 14]: 60
- Plant response rating, Velvetleaf [6, 24]: 80
- Pigweed plant response rating [7, 22]: 70
- Plant response rating, Pigweed [7, 23]: 80
- Plant response rating, Pigweed [7, 14]: 20
- Plant response rating, Pigweed [7, 24]: 100
- Crabgrass, Large plant response rating [8, 22]: 50
- Plant response rating, Crabgrass, Large [8, 23]: 80
- Plant response rating, Crabgrass, Large [8, 14]: 10
- Plant response rating, Crabgrass, Large [8, 24]: 70
- Plant response rating, Flood, Barnyardgrass [9]: 0
- Plant response rating, Barnyardgrass [9, 25]: 0
- Plant response rating, Barnyardgrass [9, 26]: 0
- Plant response rating, Barnyardgrass [9, 17]: 0
- Plant response rating, Flood, Ducksalad [10]: 0
- Plant response rating, Ducksalad [10, 25]: 0
- Plant response rating, Ducksalad [10, 26]: 0
- Plant response rating, Ducksalad [10, 17]: 0
- Plant response rating, Flood, Rice (rice (Oryza sativa)): 0
- Plant response rating, Rice (rice (Oryza sativa); [25]): 0
- Plant response rating, Rice (rice (Oryza sativa); [26]): 0
- Plant response rating, Rice (rice (Oryza sativa); [17]): 0
- Plant response rating, Flood, Sedge, Umbrella [11]: 0
- Plant response rating, Sedge, Umbrella [11, 25]: 0
- Plant response rating, Sedge, Umbrella [11, 26]: 0
- Plant response rating, Sedge, Umbrella [11, 17]: 0

— US8952024B2, “Herbicidal pyrimidone derivatives” (E I du Pont de Nemours and Company, priority 2009, dated 2015)
